Data from patent publication US20250002475A1 (EPICS THERAPEUTICS, priority 2023, published 2025).

Legend:
Kasumi-1 cells = experiment: Kasumi-1 cellular viability assay (ATP-Lite, 72 h); format: cell-based; conditions: Homo sapiens, ATP-Lite luminescence, % viability relative to DMSO
Procedure: Kasumi-1 cell line was purchased from ATCC (ATCC® CRL2724™). Cells were isolated from the peripheral blood of a child with acute myeloid leukemia (AML FAB M2) (in 2nd relapse after bone marrow transplantation) in 1989. Most cells are round. Kasumi-1 cells are observed to grow individually or in small clumps in suspension.
Kasumi-1 cells are cultured in RPMI-1640 (Gibco A10491-01) containing 10% heat-inactivated and 0.22 μm filtered FBS (Gibco 10270-106) at a density of 3E+5 and 3E+6 viable cell/mL following the certificate of analysis.
(§1) Cellular viability assay: Kasumi-1 cells were plated (50 μL) in 96-well cell culture microplates (PS, F-Bottom black, Cellstar, Greiner 655086) at final concentration of 15000 cells/well. The compounds of the invention were dissolved in DMSO, and a titration curve was generated at 1000× final concentration. Compounds were then diluted 500× in tissue culture medium (RPMI-1640, 10% FBS). Then 50 μl of test compound were added to Kasumi-1 cells in a final DMSO concentration of 0.1%, final volume 100 μl. A gas permeable sealing membrane was applied to the plate to prevent evaporation (Breathe-Easy sealing membrane, Sigma Z380059-1PK) and cells were incubated for 72 h at 37° C., 5% CO2, 80% RH. After 72h of treatment, the plates were taken out of the incubator and left for a few minutes at room temperature. 100 μl of the reconstituted reagent ATP-Lite One Step (Perkin Elmer, 6016739) was added to each well. The plates were shaken for 2 min at 700 rpm and placed in the dark for 10 minutes at room temperature before measurement of luminescence intensity with Envision instrument. The raw data were expressed in RLU. Results were expressed in % of viability relative to DMSO control and an IC50 was calculated based on the concentration-response profile of individual compounds.

Caov-3 cells = experiment: Caov-3 cellular viability assay (ATP-Lite, 72 h); format: cell-based; conditions: Homo sapiens, ATP-Lite luminescence, % viability relative to DMSO
Procedure: Caov-3 cell line was purchased from ATCC (ATCC® HTB-75™). Cells were isolated from the ovary of a ovarian cancer patient.
Caov-3 cells are cultured in DMEM (ATCC 30-2002) containing 10% heat-inactivated and 0.22 μm filtered FBS (Gibco 10270-106). The cells are seeded at 2.5E+4cell/cm^2 within the recommended subcultivation ratio of 1:3 to 1:6, as stated on the certificate of analysis issues by the provider of the cells.
as §1, with “assay: Caov-3” for “assay: Kasumi-1”, “of 10000” for “of 15000”, “to Caov-3” for “to Kasumi-1”, “After 72 h” for “After 72h”, “6016739) were” for “6016739) was”

[1] = molecular target: T1, recombinant METTL3/METTL14 complex (Homo sapiens, UniProt Q86U44); experiment: METTL3/14 Scintillation Proximity Assay (SPA), RNA methyltransferase activity; format: biochemical; conditions: 5.31 nM METTL3/14 complex, 250 nM RNA substrate, 1 μM 3H-SAM, 90 min; for compounds marked * best of the two separated forms
T1 construct: purchased Active Motif 311970; host or cells: Sf9 cells
T1 sequence (Q86U44 whole entry): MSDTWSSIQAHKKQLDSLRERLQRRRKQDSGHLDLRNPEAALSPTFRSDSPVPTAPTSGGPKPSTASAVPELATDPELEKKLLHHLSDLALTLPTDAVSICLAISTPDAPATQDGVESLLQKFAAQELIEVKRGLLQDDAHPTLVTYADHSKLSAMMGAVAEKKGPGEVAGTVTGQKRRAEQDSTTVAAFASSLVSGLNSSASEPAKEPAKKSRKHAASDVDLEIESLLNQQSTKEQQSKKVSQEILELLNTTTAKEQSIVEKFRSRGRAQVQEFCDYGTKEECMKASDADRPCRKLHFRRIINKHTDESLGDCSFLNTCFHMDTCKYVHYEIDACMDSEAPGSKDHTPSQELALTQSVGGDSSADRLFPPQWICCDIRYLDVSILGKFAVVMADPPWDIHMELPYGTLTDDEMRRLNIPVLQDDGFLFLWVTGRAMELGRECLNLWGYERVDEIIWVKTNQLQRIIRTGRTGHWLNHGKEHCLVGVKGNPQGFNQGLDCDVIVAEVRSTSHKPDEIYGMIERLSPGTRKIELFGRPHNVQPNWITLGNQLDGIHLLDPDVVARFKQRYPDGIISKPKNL
T1 sequence (Q9HCE5 whole entry partner): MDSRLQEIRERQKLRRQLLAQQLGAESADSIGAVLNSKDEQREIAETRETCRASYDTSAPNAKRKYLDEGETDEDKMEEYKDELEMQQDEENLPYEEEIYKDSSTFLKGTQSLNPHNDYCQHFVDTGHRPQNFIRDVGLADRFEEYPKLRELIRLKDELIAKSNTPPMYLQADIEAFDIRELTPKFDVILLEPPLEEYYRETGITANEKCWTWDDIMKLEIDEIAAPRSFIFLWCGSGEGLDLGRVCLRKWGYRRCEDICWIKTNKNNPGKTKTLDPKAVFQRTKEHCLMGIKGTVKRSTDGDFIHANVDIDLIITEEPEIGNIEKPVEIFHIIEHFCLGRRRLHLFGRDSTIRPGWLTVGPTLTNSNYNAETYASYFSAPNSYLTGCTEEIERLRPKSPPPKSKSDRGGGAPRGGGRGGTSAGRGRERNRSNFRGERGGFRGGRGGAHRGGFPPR

| IC50 [1] [µM] | Structure (SMILES) | IC50 (Kasumi-1 cells) [µM] | IC50 (Caov-3 cells) [µM] |
| --- | --- | --- | --- |
| ≤ 0.05 | COc1cc(-c2cn(C(C)n3ccc(N4CCC[C@@H](NCC5CCC5)C4)cc3=O)nn2)c2cn[nH]c2c1 (mixture of isomers) [Compound 050, 4-((R)-3-((cyclobutylmethyl)amino)piperidin-1-yl)-1-(1-(4-(6-methoxy-1H-indazol-4-yl)-1H-1,2,3-triazol-1-yl)ethyl)pyridin-2(1H)-one] | ≤ 0.5 | ≤ 0.5 |
| ≤ 0.05 | COc1cncc(-c2cn(C(C)c3ccc(N4CCC[C@@H](NCC5CCC5)C4)cc3)nn2)c1 (mixture of isomers) [Compound 076, (3R)-N-(cyclobutylmethyl)-1-(4-(1-(4-(5-methoxypyridin-3-yl)-1H-1,2,3-triazol-1-yl)ethyl)phenyl)piperidin-3-amine] | 0.5 to 5 | 0.5 to 5 |
| ≤ 0.05 | COc1cnnc(-c2cn(C(C)n3ccc(N4CCC[C@@H](NCC5CCC5)C4)cc3=O)nn2)c1 (mixture of isomers) [Compound 093, 4-((R)-3-((cyclobutylmethyl)amino)piperidin-1-yl)-1-(1-(4-(5-methoxypyridazin-3-yl)-1H-1,2,3-triazol-1-yl)ethyl)pyridin-2(1H)-one] | 0.5 to 5 | 0.5 to 5 |
| ≤ 0.05 | CC(c1cnn(-c2cncc(N(C)C)c2)c1)n1ccc(N2CCC[C@@H](NCC3CCC3)C2)cc1=O (mixture of isomers) [Compound 156, 4-((R)-3-((cyclobutylmethyl)amino)piperidin-1-yl)-1-(1-(1-(5-(dimethylamino)pyridin-3-yl)-1H-pyrazol-4-yl)ethyl)pyridin-2(1H)-one] | ≤ 0.5 | ≤ 0.5 |
| ≤ 0.05 | CC(n1cnc(-c2cncc(N3CCCC3)c2)c1)n1ccc(N2CCC[C@@H](NCC3CC3)C2)cc1=O (mixture of isomers) [Compound 252, 4-((R)-3-((cyclopropylmethyl)amino)piperidin-1-yl)-1-(1-(4-(5-(pyrrolidin-1-yl)pyridin-3-yl)-1H-imidazol-1-yl)ethyl)pyridin-2(1H)-one] | ≤ 0.5 | ≤ 0.5 |
| ≤ 0.05 | CC(N[C@@H]1CCCN(c2ccc(C3(C(=O)Nc4cc(=O)n5ccccc5n4)COC3)nc2)C1)C1CCC1 (mixture of isomers) [Compound 336, 3-(5-((3R)-3-((1-cyclobutylethyl)amino)piperidin-1-yl)pyridin-2-yl)-N-(4-oxo-4H-pyrido[1,2-a]pyrimidin-2-yl)oxetane-3-carboxamide] | ≤ 0.5 | ≤ 0.5 |
| ≤ 0.05 | COc1cc(-c2cn(C(C)c3ccc(N4CCC[C@@H](NCC5CCC5)C4)nn3)nn2)c2cn[nH]c2c1 (single isomer, unassigned) [Compound 037] | ≤ 0.5 | ≤ 0.5 |
| ≤ 0.05 | CC(NC(=O)c1cc(=O)n2ccccc2n1)c1ccc(N2CCC[C@@H](NCC3CCC3)C2)nn1 (single isomer, unassigned) [Compound 051] | > 5 | 0.5 to 5 |
| ≤ 0.05 | COc1cncc(-c2cn(C(C)n3ccc(N4CCC[C@@H](NCC5CCC5)C4)cc3=O)nn2)c1 (single isomer, unassigned) [Compound 055] | ≤ 0.5 | ≤ 0.5 |
| ≤ 0.05 | CC(NC(=O)c1cc(=O)n2ccccc2n1)c1ccc(N2CCC[C@@H](NCC3CCC3)C2)cn1 (single isomer, unassigned) [Compound 058] | 0.5 to 5 | 0.5 to 5 |
| ≤ 0.05 | O=C(NC(c1ccc(N2CCC[C@@H](NCC3CCC3)C2)nn1)C(F)(F)F)c1cc(=O)n2ccccc2n1 (single isomer, unassigned) [Compound 065] | > 5 | 0.5 to 5 |
| ≤ 0.05 | COc1cncc(-c2cn(C(C)c3ccc(N4CCC[C@@H](NCC5CCC5)C4)nn3)nn2)c1 (single isomer, unassigned) [Compound 066] | 0.5 to 5 | 0.5 to 5 |
| ≤ 0.05 | COc1cncc(-c2cn(C(C)c3ccc(N4CCC[C@@H](NCC5CCC5)C4)nc3)nn2)c1 (single isomer, unassigned) [Compound 071] | 0.5 to 5 | 0.5 to 5 |
| ≤ 0.05 | COc1cncc(-c2cn(C(C)c3ccc(N4CCC[C@@H](NCC5CCC5)C4)cn3)nn2)c1 (single isomer, unassigned) [Compound 073] | 0.5 to 5 | 0.5 to 5 |
| ≤ 0.05 | CCC(NC(=O)c1cc(=O)n2ccccc2n1)c1ccc(N2CCC[C@@H](NCC3CCC3)C2)nn1 (single isomer, unassigned) [Compound 083] | > 5 | 0.5 to 5 |
| ≤ 0.05 | CCC(c1ccc(N2CCC[C@@H](NCC3CCC3)C2)nn1)n1cc(-c2cncc(OC)c2)nn1 (single isomer, unassigned) [Compound 085] | > 5 | 0.5 to 5 |
| ≤ 0.05 | CC(n1cc(-c2cc(=O)n3ccccc3n2)nn1)n1ccc(N2CCC[C@@H](NCC3CCC3)C2)cc1=O (single isomer, unassigned) [Compound 088] | 0.5 to 5 | 0.5 to 5 |
| ≤ 0.05 | CC(n1cc(-c2cccn3cncc23)nn1)n1ccc(N2CCC[C@@H](NCC3CCC3)C2)cc1=O (single isomer, unassigned) [Compound 124] | > 5 | 0.5 to 5 |
| ≤ 0.05 | COc1cncc(-c2ncn(C(C)n3ccc(N4CCC[C@@H](NCC5CCC5)C4)cc3=O)n2)c1 (single isomer, unassigned) [Compound 135] | 0.5 to 5 | 0.5 to 5 |
| ≤ 0.05 | COc1cncc(-c2cn(C(C)c3ccc(N4CCC[C@@H](NCC5CCC5)C4)nc3F)nn2)c1 (single isomer, unassigned) [Compound 138] | 0.5 to 5 | 0.5 to 5 |
| ≤ 0.05 | CC(n1cc(-c2cncc(N(C)C)c2)nn1)n1ccc(N2CCC[C@@H](NCC3CC3)C2)cc1=O (single isomer, unassigned) [Compound 142] | ≤ 0.5 | ≤ 0.5 |
| ≤ 0.05 | CC(c1ccc(N2CCC[C@@H](NCC3CCC3)C2)cn1)n1cc(-c2cncc(N(C)C)c2)nn1 (single isomer, unassigned) [Compound 143] | ≤ 0.5 | ≤ 0.5 |
| ≤ 0.05 | CCN(C)c1cncc(-c2cn(C(C)n3ccc(N4CCC[C@@H](NCC5CCC5)C4)cc3=O)nn2)c1 (single isomer, unassigned) [Compound 151] | ≤ 0.5 | ≤ 0.5 |
|  | COc1cc(-c2cn(Cc3ccc(N4CCC[C@@H](N(C)CC5CCC5)C4)nn3)nn2)c2cn[nH]c2c1 [Compound 022, (R)-N-(cyclobutylmethyl)-1-(6-((4-(6-methoxy-1H-indazol-4-yl)-1H-1,2,3-triazol-1-yl)methyl)pyridazin-3-yl)-N-methylpiperidin-3-amine] | 0.5 to 5 | > 5 |
|  | COc1cc(-c2cn(Cc3ccc(N4CCC[C@@H](NC5CCCC5)C4)nn3)nn2)c2cn[nH]c2c1 [Compound 023, (R)-N-cyclopentyl-1-(6-((4-(6-methoxy-1H-indazol-4-yl)-1H-1,2,3-triazol-1-yl)methyl)pyridazin-3-yl)piperidin-3-amine] | 0.5 to 5 | 0.5 to 5 |
| ≤ 0.05 | CC(c1ccc(N2CCC[C@@H](NCC3CC3)C2)nn1)c1nnc(-c2cncc(N3CCCC3)n2)s1 (stereo partly drawn) [Compound 353, (3R)—N-(cyclopropylmethyl)-1-(6-(1-(5-(6-(pyrrolidin-1-yl)pyrazin-2-yl)-1,3,4-thiadiazol-2-yl)ethyl)pyridazin-3-yl)piperidin-3-amine] |  | ≤ 0.5 |
